# Measurements published in patent publication US5159102A, “7-thiaprostaglandins E, and process for producing same” (Teijin Limited, priority 1990, dated 1992).
# How the values were obtained:
# [1] = tested on: blood platelet aggregation (ADP, PRP); test: In vitro blood platelet aggregation inhibition effect; type: cell-based, native Japanese white male domestic rabbits; settings: Oryctolagus cuniculus, rabbit PRP, 10 μM ADP, 37° C., read-out: Anti-platelet aggregation effect IC50
# Experimental: The in vitro blood platelet aggregation inhibition effect of the sample compounds to be tested was examined by using rabbits. That is, blood was collected from the ear vein of native Japanese white male domestic rabbits weighing 2.5 to 3.5 kg. The collected blood was 9 parts by volume per 1 part by volume of a 3.8% sodium citrate solution. The blood was centrifuged at 1000 r.p.m. for 10 minutes. The upper layer portion was separated as PRP (rich in platelet blood plasma). The lower layer portion was further centrifuged at 2800 r.p.m. for 10 minutes to divide it into two layers. The upper layer portion was separated as PPP (poor in platelet blood plasma). The number of the platelet was diluted with PPP to […]. After the adjustment, 25 μl of the sample compound was added to 250 μl of PRP, which was preincubated at a temperature of 37° C. for 2 minutes. Thereafter, 10 μM of ADP (final) was added to the preincubated PRP to record the variation of the transmittance by means of aggregometer. […]
# When the activity of the sample compounds was determined, the ethanol solution was diluted with a phosphoric acid buffer (PH 7.4). The ethanol solution diluted with the buffer was left to stand at a temperature of 0° C. for 4 hours, after which the activity of the sample compounds was determined in the same manner.
# The platelet aggregation inhibition was calculated by the following formula: […]
# [2] = tested on: ulcer formation induced by indomethacin (stomach); test: Inhibiting effect on ulcer formation induced by indomethacin (antiulcerative effect); type: in vivo; settings: Rattus norvegicus, po; P.O., Wister male rats; 30 min before indomethacin 20 mg/kg p.o.; ulcer length 5 h after
# Experimental: The inhibiting effect on ulcer formation induced by indomethacin was examined by using rats. Wister male rats (7 weeks old and body weight of 220 g) were abstained from food for 24 hours except giving water and then subjected to experiments.
# The sample compounds to be tested were dissolved in a phosphoric acid buffer (pH 7.4) containing 0.9% NaCl and the solution was orally administered to the rats. 30 minutes after the administration, indomethacin was orally administered to the rats at a dose of 20 mg/kg. 5 hours after the administration of the indomethacin, the rats were killed and the ulcer formation in the stomach was examined by determining the length of the ulcer formation portion under a stereomicroscope. From this measurement, the inhibition of ulcer formation by the sample compounds were calculated to determine the ED values.
SMILES,IC50 [1],ED50 [2]
CCCCC(O)C/C=C/[C@H]1[C@H](O)CC(=O)[C@@H]1SCCCCCC(=O)OC (stereo partly shown),17 mg/L,0.01 mg/kg
CCCCCC(O)/C=C/C1CCC(=O)C1SCCCCCC(=O)OC (stereo not shown),> 100 mg/L,0.3 mg/kg
